Data reported in US6365572B1, “Low molecular weight peptide derivatives as inhibitors of the laminin/nidogen interaction” (Aventis Pharma Deutschland GmbH, priority 1999, dated 2002).
Starred links: 1 amine or outer side, 2 acyl side, 3 side chain; linkers in the order of their positions; H or OH if unused. Non-standard residues stand in square brackets, D forms with d. Residues, ends and D or L forms follow the SMILES beside them. *: point of attachment. X2 = O=C([C@@H]1[C@H](c2ccccc2)CCN1[*:1])[*:2]; Pro(3R-Ph) = O=C(O)[C@H]1NCC[C@@H]1c1ccccc1; Dip = N[C@H](C(=O)O)C(c1ccccc1)c1ccccc1; 2Nal = N[C@@H](Cc1ccc2ccccc2c1)C(=O)O; d2Nal = N[C@H](Cc1ccc2ccccc2c1)C(=O)O; βAsp = O=C(O)[C@H](CC(=O)[*:2])N[*:1]; Glutaryl = O=C(CCCC(=O)[*:2])[*:1]; hPhe = N[C@@H](CCc1ccccc1)C(=O)O; 3Pal = N[C@@H](Cc1cccnc1)C(=O)O; Cit = NC(=O)NCCC[C@H](N)C(=O)O; NH(3-hydroxypropyl) = OCCCN*; Suc = O=C(CCC(=O)[*:2])[*:1]; Tle = CC(C)(C)[C@H](N)C(=O)O; X1 = CC(=O)c1ccccc1C(=O)*

target: T1, laminin/nidogen interaction (laminin P1, recombinantly produced human nidogen) (Homo sapiens, UniProt P14543); assay: HTS screening assay (time-resolved fluorescence), inhibition of laminin/nidogen binding; details: results table 1.3, synthesized compounds 1 to 43; read-out: IC50
T1 construct: made in house; host or cells: HEK-293
T1 sequence (P14543 29-1247): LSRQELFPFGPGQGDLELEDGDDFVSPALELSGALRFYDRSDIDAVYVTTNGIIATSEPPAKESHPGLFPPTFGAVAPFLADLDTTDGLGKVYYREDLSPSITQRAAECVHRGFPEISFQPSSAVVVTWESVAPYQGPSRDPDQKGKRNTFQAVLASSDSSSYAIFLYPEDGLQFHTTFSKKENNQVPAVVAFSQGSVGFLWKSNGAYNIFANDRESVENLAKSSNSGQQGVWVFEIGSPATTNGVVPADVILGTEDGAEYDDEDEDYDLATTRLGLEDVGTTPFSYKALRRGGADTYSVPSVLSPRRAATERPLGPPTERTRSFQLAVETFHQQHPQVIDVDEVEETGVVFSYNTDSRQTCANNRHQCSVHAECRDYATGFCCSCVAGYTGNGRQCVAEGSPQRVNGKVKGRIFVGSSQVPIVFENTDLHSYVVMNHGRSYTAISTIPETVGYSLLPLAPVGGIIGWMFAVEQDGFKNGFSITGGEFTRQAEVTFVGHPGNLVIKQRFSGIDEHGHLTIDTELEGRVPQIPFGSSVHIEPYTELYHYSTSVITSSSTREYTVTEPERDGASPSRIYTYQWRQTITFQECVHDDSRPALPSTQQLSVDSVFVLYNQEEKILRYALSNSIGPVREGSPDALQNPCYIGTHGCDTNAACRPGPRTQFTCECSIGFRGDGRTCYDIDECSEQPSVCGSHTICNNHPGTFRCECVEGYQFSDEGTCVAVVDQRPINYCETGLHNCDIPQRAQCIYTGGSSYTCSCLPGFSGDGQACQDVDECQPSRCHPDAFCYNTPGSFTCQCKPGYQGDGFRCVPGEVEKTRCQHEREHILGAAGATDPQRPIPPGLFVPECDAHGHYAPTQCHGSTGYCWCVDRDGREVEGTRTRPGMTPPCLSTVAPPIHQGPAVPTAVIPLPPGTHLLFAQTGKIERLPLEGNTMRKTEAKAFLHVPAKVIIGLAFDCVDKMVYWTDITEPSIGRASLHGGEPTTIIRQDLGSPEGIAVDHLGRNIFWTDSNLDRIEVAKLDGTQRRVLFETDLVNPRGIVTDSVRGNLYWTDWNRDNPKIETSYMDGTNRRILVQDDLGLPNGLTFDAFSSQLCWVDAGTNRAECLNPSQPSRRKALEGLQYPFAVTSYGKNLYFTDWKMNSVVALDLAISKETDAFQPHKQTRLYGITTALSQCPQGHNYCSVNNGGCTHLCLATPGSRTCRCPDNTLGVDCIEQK
Method: 5) The compound stocks were preincubated with nidogen (10 μl compound stock to 90 μl nidogen solution) and the assay was performed as described in the attached protocol, yielding a final screening concentration of 2.7 μM per compound. The isolation of laminin P1 from human placenta, human nidogen from transfected HEK-293 cells and mouse laminin γ1III 3-5 from HEK-293 cells is described in WO 98/31709. 3.1.1. HTS screening assay (highly sensitive assay variant): Time-Resolved Fluorescence Assay Coating of test tubes Microtiter plates (for example FluoroNunc®) were coated with 75 μl of a 0.1 μg/ml solution of laminin P1 (in 0.159 g of Na2CO3, 0.293 g of NaHCO3, 0.02 g of NaN3/liter, pH 9.2) at room temperature for 1 hour. The solution was then tipped off, and free binding sites were blocked by incubation with 0.5% BSA (in 7.9 g of NaCl, 1.2 g of Na2HPO4, 0.31 g of KCl, 0.23 g of NaH2PO4, 0.04% Tween 20/liter, pH 7.2) at room temperature for 0.5 hour. Completion of the blocking reaction was followed by decantation of the solution and washing once with 250 μl of washing buffer (PBS/0.04% Tween). Sequential inhibition In parallel with the coating, a preincubation of 85-100 μl of a 0.25 nM nidogen solution (recombinantly produced human nidogen) with inhibitor or standard was carried out in a separate reaction vessel (1 hour at room temperature in 7.9 g of NaCl, 1.2 g of Na2HPO4, 0.31 g of KCl, 0.23 g of NaH2PO4, 0.04% Tween 20/liter, 0.5% BSA, pH 7.2). 75 μl of the preincubation (nidogen+inhibitor or standard) were transferred into the coated wells of the microtiter plate and incubated at room temperature for 1 hour. This was followed by washing twice with PBS/0.04% Tween. Detection of the bound nidogen took place by incubation (at room temperature) for 1 hour with 75 μl of a specific antibody preparation obtained from yolks of eggs from a chicken immunized with human nidogen. The IgY fraction was used in a dilution of 1:500 in PBS/0.04% Tween. The complex of nidogen and specifically bound antibodies was, after washing twice with PBS/0.04% Tween, detected by adding anti-chicken IgY-biotin (75 μl of a 1:2500 dilution; Promega, Madison, Wis. 53711, 608-274-4330). An incubation time of 1 hour and washing twice with PBS/0.04% Tween were followed for this purpose by incubation with streptavidin-europium (Wallac; 1 hour at room temperature) and washing twice with PBS/0.04% Tween. It was finally possible, after adding 100 μl of enhancement solution (Wallac) and shaking for 5 minutes, to measure a fluorescence signal in a Victor multilabel counter using the europium protocol. The relation between the amount, of bound nidogen in the solutions with inhibitor and that of nidogen without added inhibitor was found.

| IC50 [nM] | Structure (SMILES) |
| --- | --- |
| 26300 | CC(C)[C@H](NC(=O)[C@H](C)NC(=O)[C@H](CC(N)=O)NC(=O)[C@@H](NC(=O)[C@@H](N)CC(=O)O)C(c1ccccc1)c1ccccc1)C(=O)NCC(=O)NCCCO [Compound 15, L-Aspartyl-L-(3,3-diphenyl)alanyl-L-asparaginyl-L-alanyl-L-valyl-glycine-3-hydroxypropylamide] (H-D[Dip]NAVG-{NH(3-hydroxypropyl)}) |
| 4280 | CC(C)[C@H](NC(=O)[C@H](CO)NC(=O)[C@H](CC(N)=O)NC(=O)[C@@H]1[C@H](c2ccccc2)CCN1C(=O)[C@@H](N)CC(=O)O)C(=O)NCC(=O)NCCCO [Compound 16, L-Aspartyl-L-(3S)-phenylprolyl-L-asparaginyl-L-seryl-L-valyl-glycine-3-hydroxypropylamide] (H-D[X2]NSVG-{NH(3-hydroxypropyl)}) |
| 2270 | CC(C)[C@H](NC(=O)[C@H](CO)NC(=O)[C@H](CC(N)=O)NC(=O)[C@@H]1[C@@H](c2ccccc2)CCN1C(=O)[C@@H](N)CC(=O)O)C(=O)NCC(=O)NCCCO [Compound 17, L-Aspartyl-L-(3R)-phenylprolyl-L-asparaginyl-L-seryl-L-valyl-glycine-3-hydroxypropylamide] (H-D[Pro(3R-Ph)]NSVG-{NH(3-hydroxypropyl)}) |
| 25000 | CC(C)[C@H](NC(=O)[C@H](CO)NC(=O)[C@H](CC(N)=O)NC(=O)[C@H](Cc1cccnc1)NC(=O)[C@@H](N)CC(=O)O)C(=O)NCC(=O)NCCCO [Compound 18, L-Aspartyl-L-3-(3-pyridyl)alanyl-L-asparaginyl-L-seryl-L-valyl-glycine-3-hydroxypropylamide] (H-D[3Pal]NSVG-{NH(3-hydroxypropyl)}) |
| 25000 | CC(C)[C@H](NC(=O)[C@H](CO)NC(=O)[C@H](CC(N)=O)NC(=O)[C@@H](Cc1ccc2ccccc2c1)NC(=O)[C@@H](N)CC(=O)O)C(=O)NCC(=O)NCCCO [Compound 19, L-Aspartyl-D-3-(2-naphthyl)alanyl-L-asparaginyl-L-seryl-L-valyl-glycine-3-hydroxypropylamide] (H-D[d2Nal]NSVG-{NH(3-hydroxypropyl)}) |
| 32500 | CC(C)[C@H](NC(=O)[C@H](CO)NC(=O)[C@H](CC(N)=O)NC(=O)[C@H](CCc1ccccc1)NC(=O)[C@@H](N)CC(=O)O)C(=O)NCC(=O)NCCCO [Compound 20, L-Aspartyl-L-homophenylalanyl-L-asparaginyl-L-seryl-L-valyl-glycine-3-hydroxypropylamide] (H-D[hPhe]NSVG-{NH(3-hydroxypropyl)}) |
| 340 | CC(C)[C@H](NC(=O)[C@H](CO)NC(=O)[C@H](CC(N)=O)NC(=O)[C@H](Cc1ccc2ccccc2c1)NC(=O)[C@@H](N)CC(=O)O)C(=O)NCC(N)=O [Compound 21, L-Aspartyl-L-3-(2-naphthyl)alanyl-L-asparaginyl-L-seryl-L-valyl-glycine-amide] (H-D[2Nal]NSVG-NH2) |
| 180 | CC(C)[C@H](NC(=O)[C@H](CO)NC(=O)[C@H](CC(N)=O)NC(=O)[C@H](Cc1ccc2ccccc2c1)NC(=O)[C@@H](N)CC(=O)O)C(N)=O [Compound 22, L-Aspartyl-L-3-(2-naphthyl)alanyl-L-asparaginyl-L-seryl-L-valine-amide] (H-D[2Nal]NSV-NH2) |
| 1490 | CC(=O)c1ccccc1C(=O)N[C@@H](Cc1ccc2ccccc2c1)C(=O)N[C@@H](CC(N)=O)C(=O)N[C@@H](CO)C(=O)N[C@H](C(=O)NCC(=O)NCCCO)C(C)C [Compound 23] (X1-[2Nal]NSVG-{NH(3-hydroxypropyl)}) |
| 230 | CC(C)[C@H](NC(=O)[C@H](CO)NC(=O)[C@H](CC(N)=O)NC(=O)[C@H](Cc1ccc2ccccc2c1)NC(=O)C[C@H](N)C(=O)O)C(=O)NCC(=O)NCCCO [Compound 25, L-β-Aspartyl-L-3-(2-naphthyl)alanyl-L-asparaginyl-L-seryl-L-valyl-glycine-3-hydroxypropylamide] (βAsp-[2Nal]NSVG-{NH(3-hydroxypropyl)}) |
| 450 | CC(C)[C@H](NC(=O)[C@H](CO)NC(=O)[C@H](CC(N)=O)NC(=O)[C@H](Cc1ccc2ccccc2c1)NC(=O)CCCC(=O)O)C(=O)NCC(=O)NCCCO [Compound 26, Glutaryl-L-3-(2-naphthyl)alanyl-L-asparaginyl-L-seryl-L-valyl-glycine-3-hydroxypropylamide] (Glutaryl-[2Nal]NSVG-{NH(3-hydroxypropyl)}) |
| 440 | CC(C)[C@H](NC(=O)[C@H](CO)NC(=O)[C@H](CC(N)=O)NC(=O)[C@H](Cc1ccc2ccccc2c1)NC(=O)[C@H](CC(=O)O)NC(=O)[C@@H](N)CCCNC(N)=O)C(=O)NCC(=O)NCCCO [Compound 27, L-Citrulyl-L-aspartyl-L-3-(2-naphthyl)alanyl-L-asparaginyl-L-seryl-L-valyl-glycine-3-hydroxypropylamide] (H-[Cit]D[2Nal]NSVG-{NH(3-hydroxypropyl)}) |
| 150 | CC(C)[C@H](NC(=O)[C@H](CO)NC(=O)[C@H](CC(N)=O)NC(=O)[C@H](Cc1ccc2ccccc2c1)NC(=O)[C@H](CC(=O)O)NC(=O)[C@@H](N)CCCNC(=N)N)C(=O)NCC(=O)NCCCO [Compound 28, L-Arginyl-L-aspartyl-L-3-(2-naphthyl)alanyl-L-asparaginyl-L-seryl-L-valyl-glycine-3-hydroxypropylamide] (H-RD[2Nal]NSVG-{NH(3-hydroxypropyl)}) |
| 240 | CC(C)[C@H](NC(=O)[C@H](CO)NC(=O)[C@H](CC(N)=O)NC(=O)[C@H](Cc1ccc2ccccc2c1)NC(=O)[C@H](CC(=O)O)NC(=O)[C@@H](N)CCCCN)C(=O)NCC(=O)NCCCO [Compound 29, L-Lysyl-L-aspartyl-L-3-(2-naphthyl)alanyl-L-asparaginyl-L-seryl-L-valyl-glycine-3-hydroxypropylamide] (H-KD[2Nal]NSVG-{NH(3-hydroxypropyl)}) |
| 250 | CC(C)[C@H](NC(=O)[C@H](C)NC(=O)[C@H](CC(N)=O)NC(=O)[C@H](Cc1ccc2ccccc2c1)NC(=O)CCC(=O)O)C(=O)NCC(=O)NCCCO [Compound 30, Succinyl-L-3-(2-naphthyl)alanyl-L-asparaginyl-L-alanyl-L-valyl-glycine-3-hydroxypropylamide] (Suc-[2Nal]NAVG-{NH(3-hydroxypropyl)}) |
| 170 | C[C@H](NC(=O)[C@H](CC(N)=O)NC(=O)[C@H](Cc1ccc2ccccc2c1)NC(=O)CCC(=O)O)C(=O)N[C@H](C(N)=O)C(C)(C)C [Compound 32, Succinyl-L-3-(2-naphthyl)alanyl-L-asparaginyl-L-alanyl-L-2-tert.butyl-glycine-amide] (Suc-[2Nal]NA[Tle]-NH2) |
